Data published in US6713247B1, “Human CNS cell lines and methods of use therefor” (Signal Pharmaceuticials, Inc., priority 1996, dated 2004).

Tests used:
Human CNS Line B4 = assay: Effects of growth conditions on neuronal differentiation (morphology), Human CNS Line B4 (Table 3); format: cell-based; conditions: clone B4, added to tet
Description: (§1) To promote further neuronal maturation the effects of additional differentiating agents on clone B4 were examined.

clone B4 = assay: Immunoreactivity of clone B4 (BrdU, v-myc, MAP2a/b, GFAP, tau, NR1); format: cell-based, human
Description: as §1

clone E5 = assay: Immunoreactivity of clone E5; format: cell-based, human; conditions: clone E5, after differentiation
Description: Clone E5 is an immature multi-potent cell. Clone E5 is multi-potential and likely represents an immortalized stem cell.

clone C10 = assay: Effects of EGF and PDGF on proliferation and survival, clone C10; format: cell-based, human; conditions: EGF 40 ng/mL, PDGF 20 ng/mL
Protocol: (§2) EGF and PDGF Enhance Proliferation Rate and Cell Survival. To facilitate the expansion of the human CNS clones, we identified factors that increase the proliferation rate and/or cell survival. To examine the effects of EGF and PDGF on the proliferation and survival of the human CNS clones, 40 ng/mL EGF, 20 ng/mL PDGF or both were added to the standard growth medium, which already contained FGF-2 and 50% CM, and total cell number and BrdU uptake and incorporation were assessed as described above. For clone C2, EGF or PDGF addition increased the total cell number (FIG. 11A) by approximately 2-fold. This increase in cell number was due to enhanced cell viability (decreased cell death), since there were only slight increases in proliferation rate (assessed by BrdU uptake and incorporation, FIG. 11B). […] In the case of clone C10, EGF (but not PDGF) addition increased the total cell number (FIG. 12A) by approximately 40%. […] This increase in cell number was due, at least in part, to enhanced proliferation rates; BrdU uptake and incorporation increase about 2-fold with EGF or EGF+PDGF addition (FIG. 12B), and doubling times (based on cell counts as a function of days in vitro, data not shown) decreased from 3 days (no EGF or PDGF addition) to 2 days (EGF+PDGF addition). […]

clone C2 = assay: Effects of EGF and PDGF on proliferation and survival, clone C2; format: cell-based, human; conditions: added to growth medium with FGF-2 and 50% CM, EGF 40 ng/mL, PDGF 20 ng/mL
Protocol: as §2

Description for differentiated clone B4: B4 cells were differentiated by growth with tet+RA for 1 day, followed by tet, high K^+, NT-3 and BDNF for 6 days.

Compound: CCCCCCCCCCCCCC(=O)O[C@@H]1[C@@H](C)[C@@]2(O)[C@@H](C=C(CO)C[C@]3(O)C(=O)C(C)=C[C@@H]23)[C@@H]2C(C)(C)[C@]12OC(C)=O [PMA, phorbol 12-myristate 13-acetate]
- effect on neuronal differentiation (morphology and immunocytochemical staining) (Human CNS Line B4): prevented tet from inducing neuronal differentiation
- effect on cell lineage (MAP2a/b and GFAP immunoreactivities) (clone B4): strongly promoted astrocytic differentiation

Compound: CN(C)[C@@H]1C(O)=C(C(N)=O)C(=O)[C@@]2(O)C(O)=C3C(=O)c4c(O)cccc4[C@@](C)(O)[C@H]3C[C@@H]12 [tetracycline]
- cells stained for GFAP (clone E5): about 20%
- cells stained for MAP2a/b (clone E5): about 50%

Compound: PDGF: human recombinant platelet derived growth factor A/B
- effect on total cell number (clone C10): not
- increase in total cell number (clone C2): approximately 2 fold

Compound: TNFα
- DNA laddering upon gel analysis (differentiated clone B4; TNFα 10 ng/mL): increased DNA laddering
- percentage of apoptotic nuclei (differentiated clone B4; TNFα 10 ng/mL): increased
- effect on neuronal viability (differentiated clone B4; TNFα 0.05 or 0.2 ng/mL): little effect on neuronal viability

Compound: Z-Val-Ala-Asp-Ch2F [Z-VAD, reference compound]
- effect on TNFα-induced increase in DNA laddering (differentiated clone B4; Z-VAD at 80 μM, TNFα 10 ng/mL): blocked the increase in DNA laddering
